From patent publication US7226923B2, “Phthalazinone derivatives” (Hoffman-La Roche Inc., priority 2004, dated 2007) come the findings set out here.

SMILES strings stand for the structures.

The target of experiment [1] is T1, Aurora A (Homo sapiens, UniProt O14965).
T1 construct: C-terminally Histidine4 (His4)-tagged Aurora A full-length protein
T1 sequence (O14965 1-403): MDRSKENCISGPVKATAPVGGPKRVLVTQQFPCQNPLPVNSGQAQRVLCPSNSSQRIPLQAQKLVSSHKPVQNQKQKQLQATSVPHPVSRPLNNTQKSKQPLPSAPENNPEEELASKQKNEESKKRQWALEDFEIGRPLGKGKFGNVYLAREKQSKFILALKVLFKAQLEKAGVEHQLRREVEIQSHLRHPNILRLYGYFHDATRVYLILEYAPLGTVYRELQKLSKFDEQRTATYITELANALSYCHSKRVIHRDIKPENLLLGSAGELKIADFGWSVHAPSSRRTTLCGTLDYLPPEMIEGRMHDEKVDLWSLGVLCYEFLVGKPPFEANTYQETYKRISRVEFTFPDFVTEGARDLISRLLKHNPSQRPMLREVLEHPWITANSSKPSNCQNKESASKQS
The experiment in a line: IC50 determination for inhibitors of Aurora A (96 MTP-ELISA). To be noted: His4-tagged full-length Aurora A 250 ng/ml, PKB-GSK2 200 nM, ATP 4 μM, 90 min at room temperature, read-out: IC50 Aurora A kinase inhibition. It is filed as biochemical.

For experiment [2], the system named is HCT 116 cells. The experiment in a line: CellTiter-Glo assay in HCT 116 cells. It is filed as cell-based, human. To be noted: Homo sapiens, HCT-116, 120 h, 5 days incubation, 30 μM to 0.0015 μM. The method, boiled down: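 Cells seeded at 1000/well in RPMI 1640 with 5% FCS, grown 24 h at 37 °C, then treated with 10 concentrations from 30 μM to 0.0015 μM (1:3 dilutions). After 5 days viability was read as ATP-based luminescence (CellTiter-Glo) following 30 min room-temperature equilibration and lysis.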

Turning to `Cc1cc(Nc2nn(Cc3ccccc3)c(=O)c3cc(N4CCOCC4)ccc23)n[nH]1` [Example F-4, 2-Benzyl-4-(5-methyl-1H-pyrazol-3-ylamino)-7-morpholino-2H-phthalazin-1-one], the IC50 in experiment [1] is 1 to 100 nM; in experiment [2], 100 to 10000 nM.
The like results for `Cc1cc(Nc2nn(C(C)C)c(=O)c3cc(N4CCOCC4)ccc23)n[nH]1` [Example F-1, 2-Isopropyl-4-(5-methyl-1H-pyrazol-3-ylamino)-7-morpholino-2H-phthalazin-1-one] were, in that order, 1 to 100 nM and 100 to 10000 nM.
As for `Cc1cc(Nc2nn(C(C)C)c(=O)c3c(N(C)C)cccc23)n[nH]1` [Example F-8, 2-Isopropyl-4-(5-methyl-1H-pyrazol-3-ylamino)-8-dimethylamino-2H-phthalazin-1-one], the IC50 is 1 to 100 nM in experiment [1] and 420 nM in experiment [2].
The like results for `Cc1cc(Nc2nn(C(C)C)c(=O)c3cc(OCc4ccccn4)ccc23)n[nH]1` [Example G-2, 2-Isopropyl-4-(5-methyl-1H-pyrazol-3-ylamino)-7-(pyridin-2-ylmethoxy)-2H-phthalazin-1-one] were, in that order, 1 to 100 nM and 100 to 10000 nM.
The matching figures for `Cc1cc(Nc2nn(-c3ccc(C(F)(F)F)cc3)c(=O)c3ccccc23)n[nH]1` [Example A-25, 4-(5-Methyl-1H-pyrazol-3-ylamino)-2-(4-trifluoromethyl-phenyl)-2H-phthalazin-1-one]: 1 to 100 nM and 100 to 10000 nM.
On to `COc1ccc2c(Nc3cc(C)[nH]n3)nn(C(C)C)c(=O)c2c1` [Example G-1, 2-Isopropyl-4-(5-methyl-1H-pyrazol-3-ylamino)-7-methoxy-2H-phthalazin-1-one], for which the results for the IC50 in experiment [1] and in experiment [2] were 1 to 100 nM and 100 to 10000 nM, respectively.
Turning to `Cc1cc(Nc2nn(C(C)C)c(=O)c3cc(C(=O)N4CCOCC4)ccc23)n[nH]1` [Example M-2, 2-Isopropyl-4-(5-methyl-1H-pyrazol-3-ylamino)-7-(morpholine-4-carbonyl)-2H-phthalazin-1-one], the concentration for half-maximal inhibition (IC50) in experiment [1] was 1 to 100 nM; in experiment [2], 100 to 10000 nM.
The matching figures for `Cc1cc(Nc2nn(Cc3ccccn3)c(=O)c3ccccc23)[nH]n1` [Example A-22, 4-(5-Methyl-2H-pyrazol-3-ylamino)-2-pyridin-2-ylmethyl-2H-phthalazin-1-one]: 1 to 100 nM and 100 to 10000 nM.
The matching figures for `Cc1cc(Nc2nn(C(C)C)c(=O)c3cc(OCCN4CCOCC4)ccc23)n[nH]1` [Example G-5, 2-Isopropyl-4-(5-methyl-1H-pyrazol-3-ylamino)-7-(2-morpholin-4-yl-ethoxy)-2H-phthalazin-1-one]: 7 nM and 100 to 10000 nM.
The matching figures for `Cc1cc(Nc2nn(C(C)C)c(=O)c3cc(CN4CCOCC4)ccc23)n[nH]1` [Example L-2, 2-Isopropyl-4-(5-methyl-1H-pyrazol-3-ylamino)-7-morpholin-4-ylmethyl-2H-phthalazin-1-one]: 1 to 100 nM and 100 to 10000 nM.
With `Cc1cc(Nc2nn(C(C)C)c(=O)c3cc(OCc4ccncc4)ccc23)n[nH]1` [Example G-4, 2-Isopropyl-4-(5-methyl-1H-pyrazol-3-ylamino)-7-(pyridin-4-ylmethoxy)-2H-phthalazin-1-one], the figures for the IC50 in experiment [1] and in experiment [2] were 1 to 100 nM and 100 to 10000 nM, respectively.
